Here are results for 11 compounds from patent US20090048112A1, “Novel Herbicides” (SYNGENTA LIMITED, priority 2005, published 2009).

The subject of the assay is Monocotyledonous and dicotyledonous test plants. In words: Example B1: herbicidal action prior to emergence (pre-emergence), 500 g/ha. The assay is classed as in vivo. Conditions: 13 days after application, 0 = no damage, 100 = plants completely dead; for ALOMY herbicidal effect (visual assessment, percentage scale): Alopecurus myosuroides (slender foxtail); for AMARE herbicidal effect (visual assessment, percentage scale): Amaranthus retroflexus (redroot pigweed); for ECHCG herbicidal effect (visual assessment, percentage scale): Echinochloa crus-galli (barnyard grass); for STEME herbicidal effect (visual assessment, percentage scale): Stellaria media (chickweed). Here is the method: Monocotyledonous and dicotyledonous test plants were sown in seed trays in standard compost. The trays were watered twice daily or as required. The chemicals were applied by track sprayer at the soil surface. The application was carried out with an aqueous suspension of the test substances, prepared as a formulation of 50% acetone in water with 0.5% Tween 20™ (CAS RN 9005-64-5), to achieve a field equivalent of 1000 l/ha. The application rate of the test substances was 500 g/ha. A visual assessment of the herbicidal effect was made at 13 days after application. The following percentage scale was used for assessment: 0, 5, 10, 20, 30, 40, 50, 60, 70, 80, 90, 95, 100 (where 0 is no damage to plants and 100 is plants are completely dead).

Regarding `Cn1nc(C(F)(F)F)c(CS(=O)(=O)c2ncc(Cl)s2)c1OCC(F)(F)F` [Compound No. 1.015], the “ALOMY herbicidal effect (visual assessment, percentage scale)” value is 90%; the “AMARE herbicidal effect (visual assessment, percentage scale)” value came out at 95%; the “ECHCG herbicidal effect (visual assessment, percentage scale)” value amounted to 95%; the “STEME herbicidal effect (visual assessment, percentage scale)” value is given as 80%.

In the case of `Cn1nc(C(F)(F)F)c(CS(=O)(=O)c2ncc(Cl)s2)c1F` [Compound No. 1.009], the “ALOMY herbicidal effect (visual assessment, percentage scale)” value is reported as 0%; the “AMARE herbicidal effect (visual assessment, percentage scale)” value was 95%; the “ECHCG herbicidal effect (visual assessment, percentage scale)” value was 95%; the “STEME herbicidal effect (visual assessment, percentage scale)” value was found to be 0%.

As to `Cn1nc(C(F)(F)F)c(C[S+]([O-])c2ncc(Br)s2)c1F` (racemic) [Compound 1.011], the “ALOMY herbicidal effect (visual assessment, percentage scale)” value is recorded as 95%; the “AMARE herbicidal effect (visual assessment, percentage scale)” value was determined as 95%; the “ECHCG herbicidal effect (visual assessment, percentage scale)” value is 95%; the “STEME herbicidal effect (visual assessment, percentage scale)” value is listed as 10%.

`Cn1nc(C(F)(F)F)c(CS(=O)(=O)c2nccs2)c1OCC(F)(F)F` [Compound 1.049]: the “ALOMY herbicidal effect (visual assessment, percentage scale)” value came to 30%; the “AMARE herbicidal effect (visual assessment, percentage scale)” value is given as 95%; the “ECHCG herbicidal effect (visual assessment, percentage scale)” value is listed as 95%; the “STEME herbicidal effect (visual assessment, percentage scale)” value is on record as 10%.

Turning to `Cn1nc(C(F)(F)F)c(C(Cl)S(=O)(=O)c2ncc(Cl)s2)c1OCC(F)(F)F` (racemic) [Compound No. 1.034], the “ALOMY herbicidal effect (visual assessment, percentage scale)” value stood at 70%; the “AMARE herbicidal effect (visual assessment, percentage scale)” value turned out to be 100%; the “ECHCG herbicidal effect (visual assessment, percentage scale)” value is listed as 95%; the “STEME herbicidal effect (visual assessment, percentage scale)” value amounted to 40%.

For the compound `Cn1nc(C(F)(F)F)c(C(Cl)S(=O)(=O)c2ncc(Cl)s2)c1Cl` (racemic) [Compound No. 1.043], the “ALOMY herbicidal effect (visual assessment, percentage scale)” value is on record as 0%; the “AMARE herbicidal effect (visual assessment, percentage scale)” value stood at 80%; the “ECHCG herbicidal effect (visual assessment, percentage scale)” value stood at 95%; the “STEME herbicidal effect (visual assessment, percentage scale)” value was found to be 0%.

Take `Cn1nc(C(F)(F)F)c(C[S+]([O-])c2ncc(Cl)s2)c1F` (racemic) [Compound 1.008]: the “ALOMY herbicidal effect (visual assessment, percentage scale)” value is recorded as 95%; the “AMARE herbicidal effect (visual assessment, percentage scale)” value amounted to 100%; the “ECHCG herbicidal effect (visual assessment, percentage scale)” value came to 95%; the “STEME herbicidal effect (visual assessment, percentage scale)” value was 80%.

For `Cn1nc(C(F)(F)F)c(C(F)(Cl)S(=O)(=O)c2ncc(Cl)s2)c1Cl` (racemic) [Compound No. 1.044], the “ALOMY herbicidal effect (visual assessment, percentage scale)” value worked out at 40%; the “AMARE herbicidal effect (visual assessment, percentage scale)” value is 95%; the “ECHCG herbicidal effect (visual assessment, percentage scale)” value is 95%; the “STEME herbicidal effect (visual assessment, percentage scale)” value is recorded as 90%.

Regarding `Cn1nc(C(F)(F)F)c(C(Cl)S(=O)(=O)c2ncc(Br)s2)c1OCC(F)(F)F` (racemic) [Compound No. 1.039], the “ALOMY herbicidal effect (visual assessment, percentage scale)” value was 60%; the “AMARE herbicidal effect (visual assessment, percentage scale)” value amounted to 95%; the “ECHCG herbicidal effect (visual assessment, percentage scale)” value is on record as 95%; the “STEME herbicidal effect (visual assessment, percentage scale)” value is on record as 0%.

As for `Cn1nc(C(F)(F)F)c(CSc2ncc(Cl)s2)c1F` [Compound No. 1.007], the “ALOMY herbicidal effect (visual assessment, percentage scale)” value is recorded as 95%; the “AMARE herbicidal effect (visual assessment, percentage scale)” value is given as 80%; the “ECHCG herbicidal effect (visual assessment, percentage scale)” value came to 95%; the “STEME herbicidal effect (visual assessment, percentage scale)” value worked out at 40%.

Consider `Cn1nc(C(F)(F)F)c(CSc2ncc(Br)s2)c1F` [Compound No. 1.010], for which the “ALOMY herbicidal effect (visual assessment, percentage scale)” value is 60%; the “AMARE herbicidal effect (visual assessment, percentage scale)” value is recorded as 70%; the “ECHCG herbicidal effect (visual assessment, percentage scale)” value worked out at 80%; the “STEME herbicidal effect (visual assessment, percentage scale)” value was determined as 0%.
